# In patent US20060142379A1, “Use of AP-1 activators to treat glaucoma and ocular hypertension” (priority 1999, published 2006):
# Key:
# [1] = tested on: perfused human ocular anterior segment; assay: human ocular perfusion organ culture model, aqueous outflow rate; settings: for Flow Rate (% of Time 0) (Mean ± SEM, n = 6): t-BHQ 10 μM
# Protocol: The study was performed as follows: Human donor eyes less than 24 hours post mortem were used. The globe was sectioned equatorially followed by the removal of vitreous, lens, zonules, iris, and most of the ciliary body. The anterior segment was then mounted on a perfusion dish, perfused with cell culture medium at a constant hydrostatic pressure of 10 mm Hg (Johnson et al., Human trabecular meshwork organ culture: A new method, Invest Ophthalmol Vis Sci., volume 28, pages 945-953 (1987); Erickson-Lamy et al., Outflow facility studies in the perfused human ocular anterior segment, Exp. Eye Res., volume 52, pages 723-731 (1991); and Clark et al., Dexamethasone-induced ocular hypertension in perfusion cultured human eyes, Invest. Ophthalmol. Vis. Sci., volume 36, pages 478-489 (1995)). The flow rate of the perfusate was measured by weighing the reservoir at predetermined periods. After 2 to 4 days of equilibrium period, one eye of each of the donor pair was perfused with the test compound, t-BHQ (10 μM), while the other was perfused with vehicle (control).
# AP-1 = settings: nuclear extracts, 32P-labelled AP-1 oligonucleotide probe; cited from earlier work
structure (smiles),measurement,setting,value
"CC(C)(C)c1cc(O)ccc1O [t-BHQ, tert-butylhydroquinone]",basal flow rate at time 0,"[1]; drug-treated eyes, time 0 (basal)","(1) The basal flow rate at time 0 for vehicle-treated eyes was 3.55 ± 1.00 μL/min, and that for drug-treated eyes was 4.09 ± 0.63 μL/min."
same,"Flow Rate (% of Time 0) (Mean ± SEM, n = 6)",[1]; 0 hours (baseline),100.0 % of Time 0
same,"Flow Rate (% of Time 0) (Mean ± SEM, n = 6)",[1]; 4 hours after treatment,105.8 ± 5.4 % of Time 0
same,"Flow Rate (% of Time 0) (Mean ± SEM, n = 6)",[1]; 24 hours after treatment,102.9 ± 3.9 % of Time 0
same,"Flow Rate (% of Time 0) (Mean ± SEM, n = 6)",[1]; 48 hours after treatment,105.2 ± 10.1 % of Time 0
same,"Flow Rate (% of Time 0) (Mean ± SEM, n = 6)",[1]; 72 hours after treatment,111.8 ± 11.8 % of Time 0
same,"Flow Rate (% of Time 0) (Mean ± SEM, n = 6)",[1]; 96 hours after treatment,120.9 ± 16.4 % of Time 0
same,"Flow Rate (% of Time 0) (Mean ± SEM, n = 6)",[1]; −4 hours (before treatment),97.0 ± 4.0 % of Time 0
same,AP-1 DNA binding activity (AP-1 Activator),AP-1,demonstrated to be AP-1 Activators
